Reference: publication PMC8799717, “Pharmacological targeting PIKfyve and tubulin as an effective treatment strategy for double-hit lymphoma” (Cell Death Discovery, 2022)

Tests used:
DDR2 = DDR2 (Homo sapiens, UniProt Q16832); experiment: KINOMEscan competition binding, single dose […]; conditions: read-out: % of control at 1 μM
DDR1 = DDR1 (Homo sapiens, UniProt Q08345); experiment: KINOMEscan competition binding, single dose […]; conditions: read-out: % of control at 1 μM
STK33 = STK33 (Homo sapiens, UniProt Q9BYT3); experiment: biochemical; parameters: KINOMEscan active-site-directed competition binding panel, 468 kinases, percent of DMSO control at 1 uM; conditions: KINOMEscan binding, percent of DMSO control; read-out: Ctrl%
DYRK1B = DYRK1B (Homo sapiens, UniProt Q9Y463); experiment: biochemical; parameters: KINOMEscan active-site-directed competition binding panel, 468 kinases, percent of DMSO control at 1 uM; conditions: KINOMEscan binding, percent of DMSO control; read-out: Ctrl%
LTK = LTK (Homo sapiens, UniProt P29376); experiment: biochemical; parameters: KINOMEscan active-site-directed competition binding panel, 468 kinases, percent of DMSO control at 1 uM; conditions: KINOMEscan binding, percent of DMSO control; read-out: Ctrl%
LCK = LCK (Homo sapiens, UniProt P06239); experiment: KINOMEscan competition binding, single dose […]; conditions: read-out: % of control at 1 μM
KIT(V559D,T670I) = KIT(V559D,T670I) (Homo sapiens, UniProt P10721, T670I/V559D); experiment: biochemical; parameters: KINOMEscan active-site-directed competition binding panel, 468 kinases, percent of DMSO control at 1 uM; conditions: KINOMEscan binding, percent of DMSO control; read-out: Ctrl%
CAMK2D = CAMK2D (Homo sapiens, UniProt Q13557); experiment: biochemical; parameters: KINOMEscan active-site-directed competition binding panel, 468 kinases, percent of DMSO control at 1 uM; conditions: KINOMEscan binding, percent of DMSO control; read-out: Ctrl%
MET(M1250T) = MET(M1250T) (Homo sapiens, UniProt P08581, M1250T); experiment: biochemical; parameters: KINOMEscan active-site-directed competition binding panel, 468 kinases, percent of DMSO control at 1 uM; conditions: KINOMEscan binding, percent of DMSO control; read-out: Ctrl%
AURKC = AURKC (Homo sapiens, UniProt Q9UQB9); experiment: biochemical; parameters: KINOMEscan active-site-directed competition binding panel, 468 kinases, percent of DMSO control at 1 uM; conditions: KINOMEscan binding, percent of DMSO control; read-out: Ctrl%
DAPK3 = DAPK3 (Homo sapiens, UniProt O43293); experiment: biochemical; parameters: KINOMEscan active-site-directed competition binding panel, 468 kinases, percent of DMSO control at 1 uM; conditions: KINOMEscan binding, percent of DMSO control; read-out: Ctrl%
PRKCH = PRKCH (Homo sapiens, UniProt P24723); experiment: biochemical; parameters: KINOMEscan active-site-directed competition binding panel, 468 kinases, percent of DMSO control at 1 uM; conditions: KINOMEscan binding, percent of DMSO control; read-out: Ctrl%
PRKD3 = PRKD3 (Homo sapiens, UniProt O94806); experiment: biochemical; parameters: KINOMEscan active-site-directed competition binding panel, 468 kinases, percent of DMSO control at 1 uM; conditions: KINOMEscan binding, percent of DMSO control; read-out: Ctrl%
SGK = target: T1, SGK (Homo sapiens, UniProt O00141); experiment: biochemical; parameters: KINOMEscan active-site-directed competition binding panel, 468 kinases, percent of DMSO control at 1 uM; conditions: KINOMEscan binding, percent of DMSO control; read-out: Ctrl%
T1 construct: gene SGK1

IRAK3 = IRAK3 (Homo sapiens, UniProt Q9Y616); experiment: biochemical; parameters: KINOMEscan active-site-directed competition binding panel, 468 kinases, percent of DMSO control at 1 uM; conditions: KINOMEscan binding, percent of DMSO control; read-out: Ctrl%
MAP4K3 = MAP4K3 (Homo sapiens, UniProt Q8IVH8); experiment: biochemical; parameters: KINOMEscan active-site-directed competition binding panel, 468 kinases, percent of DMSO control at 1 uM; conditions: KINOMEscan binding, percent of DMSO control; read-out: Ctrl%
FLT3(D835Y) = FLT3(D835Y) (Homo sapiens, UniProt P36888, D835Y); experiment: biochemical; parameters: KINOMEscan active-site-directed competition binding panel, 468 kinases, percent of DMSO control at 1 uM; conditions: KINOMEscan binding, percent of DMSO control; read-out: Ctrl%
[1] = target: T2, RSK3(Kin.Dom.1-N-terminal) (Homo sapiens, UniProt Q15349); experiment: biochemical; parameters: KINOMEscan active-site-directed competition binding panel, 468 kinases, percent of DMSO control at 1 uM; conditions: KINOMEscan binding, percent of DMSO control; read-out: Ctrl%
T2 construct: gene RPS6KA2; Kin.Dom.1-N-terminal

ABL1-phosphorylated = target: T3, ABL1-phosphorylated (Homo sapiens, UniProt P00519); experiment: biochemical; parameters: KINOMEscan active-site-directed competition binding panel, 468 kinases, percent of DMSO control at 1 uM; conditions: KINOMEscan binding, percent of DMSO control; read-out: Ctrl%
T3 construct: phosphorylated

MARK1 = MARK1 (Homo sapiens, UniProt Q9P0L2); experiment: biochemical; parameters: KINOMEscan active-site-directed competition binding panel, 468 kinases, percent of DMSO control at 1 uM; conditions: KINOMEscan binding, percent of DMSO control; read-out: Ctrl%
SgK110 = target: T4, SgK110 (Homo sapiens, UniProt P0C264); experiment: biochemical; parameters: KINOMEscan active-site-directed competition binding panel, 468 kinases, percent of DMSO control at 1 uM; conditions: KINOMEscan binding, percent of DMSO control; read-out: Ctrl%
T4 construct: gene SBK3

p38-gamma = target: T5, p38-gamma (Homo sapiens, UniProt P53778); experiment: biochemical; parameters: KINOMEscan active-site-directed competition binding panel, 468 kinases, percent of DMSO control at 1 uM; conditions: KINOMEscan binding, percent of DMSO control; read-out: Ctrl%
T5 construct: gene MAPK12

BRAF = BRAF (Homo sapiens, UniProt P15056); experiment: biochemical; parameters: KINOMEscan active-site-directed competition binding panel, 468 kinases, percent of DMSO control at 1 uM; conditions: KINOMEscan binding, percent of DMSO control; read-out: Ctrl%
AXL = AXL (Homo sapiens, UniProt P30530); experiment: biochemical; parameters: KINOMEscan active-site-directed competition binding panel, 468 kinases, percent of DMSO control at 1 uM; conditions: KINOMEscan binding, percent of DMSO control; read-out: Ctrl%
EPHA8 = EPHA8 (Homo sapiens, UniProt P29322); experiment: KINOMEscan competition binding, single dose […]; conditions: read-out: % of control at 1 μM
Sequence of EPHA8 (P29322 28-1005): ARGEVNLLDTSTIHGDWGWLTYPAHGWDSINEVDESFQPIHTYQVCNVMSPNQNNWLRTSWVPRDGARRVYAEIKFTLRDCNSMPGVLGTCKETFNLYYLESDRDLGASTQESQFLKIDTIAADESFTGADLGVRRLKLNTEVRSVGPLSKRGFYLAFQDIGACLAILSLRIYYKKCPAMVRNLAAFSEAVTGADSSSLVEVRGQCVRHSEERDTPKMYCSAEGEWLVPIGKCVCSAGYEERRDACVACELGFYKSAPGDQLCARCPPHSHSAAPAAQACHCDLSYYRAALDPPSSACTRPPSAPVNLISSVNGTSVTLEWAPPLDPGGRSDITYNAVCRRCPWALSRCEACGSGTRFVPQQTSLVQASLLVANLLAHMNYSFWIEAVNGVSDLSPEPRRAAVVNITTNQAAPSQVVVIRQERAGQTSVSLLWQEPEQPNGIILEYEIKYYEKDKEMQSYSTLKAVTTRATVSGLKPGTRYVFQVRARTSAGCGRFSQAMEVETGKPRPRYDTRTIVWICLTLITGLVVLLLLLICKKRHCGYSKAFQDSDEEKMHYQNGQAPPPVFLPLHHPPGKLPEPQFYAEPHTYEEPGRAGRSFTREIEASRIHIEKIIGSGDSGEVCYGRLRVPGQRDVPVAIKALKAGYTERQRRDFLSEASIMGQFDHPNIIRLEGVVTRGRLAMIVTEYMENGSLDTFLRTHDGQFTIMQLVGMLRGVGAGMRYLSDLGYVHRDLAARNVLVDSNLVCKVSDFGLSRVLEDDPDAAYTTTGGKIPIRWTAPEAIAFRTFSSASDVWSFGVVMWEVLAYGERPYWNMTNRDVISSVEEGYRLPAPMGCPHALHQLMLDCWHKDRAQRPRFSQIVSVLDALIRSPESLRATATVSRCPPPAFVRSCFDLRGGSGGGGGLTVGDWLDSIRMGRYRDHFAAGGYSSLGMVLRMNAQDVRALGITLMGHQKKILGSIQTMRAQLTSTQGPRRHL

Sequence of CAMK2D (Q13557 whole entry): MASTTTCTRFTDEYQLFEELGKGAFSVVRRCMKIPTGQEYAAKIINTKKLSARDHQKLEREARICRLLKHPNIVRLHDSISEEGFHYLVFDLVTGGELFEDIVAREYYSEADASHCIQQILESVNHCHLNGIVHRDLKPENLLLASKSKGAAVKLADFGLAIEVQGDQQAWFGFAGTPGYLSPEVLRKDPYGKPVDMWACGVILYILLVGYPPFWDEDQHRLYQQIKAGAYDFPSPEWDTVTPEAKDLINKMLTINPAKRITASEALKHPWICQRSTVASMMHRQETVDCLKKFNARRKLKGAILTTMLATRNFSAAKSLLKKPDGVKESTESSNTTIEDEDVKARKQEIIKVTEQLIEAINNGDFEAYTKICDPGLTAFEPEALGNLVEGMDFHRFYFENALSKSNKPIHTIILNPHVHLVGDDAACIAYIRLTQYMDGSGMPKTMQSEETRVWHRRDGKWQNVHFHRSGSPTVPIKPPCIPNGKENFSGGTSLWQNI
Sequence of MET(M1250T) (P08581 whole entry M1250T): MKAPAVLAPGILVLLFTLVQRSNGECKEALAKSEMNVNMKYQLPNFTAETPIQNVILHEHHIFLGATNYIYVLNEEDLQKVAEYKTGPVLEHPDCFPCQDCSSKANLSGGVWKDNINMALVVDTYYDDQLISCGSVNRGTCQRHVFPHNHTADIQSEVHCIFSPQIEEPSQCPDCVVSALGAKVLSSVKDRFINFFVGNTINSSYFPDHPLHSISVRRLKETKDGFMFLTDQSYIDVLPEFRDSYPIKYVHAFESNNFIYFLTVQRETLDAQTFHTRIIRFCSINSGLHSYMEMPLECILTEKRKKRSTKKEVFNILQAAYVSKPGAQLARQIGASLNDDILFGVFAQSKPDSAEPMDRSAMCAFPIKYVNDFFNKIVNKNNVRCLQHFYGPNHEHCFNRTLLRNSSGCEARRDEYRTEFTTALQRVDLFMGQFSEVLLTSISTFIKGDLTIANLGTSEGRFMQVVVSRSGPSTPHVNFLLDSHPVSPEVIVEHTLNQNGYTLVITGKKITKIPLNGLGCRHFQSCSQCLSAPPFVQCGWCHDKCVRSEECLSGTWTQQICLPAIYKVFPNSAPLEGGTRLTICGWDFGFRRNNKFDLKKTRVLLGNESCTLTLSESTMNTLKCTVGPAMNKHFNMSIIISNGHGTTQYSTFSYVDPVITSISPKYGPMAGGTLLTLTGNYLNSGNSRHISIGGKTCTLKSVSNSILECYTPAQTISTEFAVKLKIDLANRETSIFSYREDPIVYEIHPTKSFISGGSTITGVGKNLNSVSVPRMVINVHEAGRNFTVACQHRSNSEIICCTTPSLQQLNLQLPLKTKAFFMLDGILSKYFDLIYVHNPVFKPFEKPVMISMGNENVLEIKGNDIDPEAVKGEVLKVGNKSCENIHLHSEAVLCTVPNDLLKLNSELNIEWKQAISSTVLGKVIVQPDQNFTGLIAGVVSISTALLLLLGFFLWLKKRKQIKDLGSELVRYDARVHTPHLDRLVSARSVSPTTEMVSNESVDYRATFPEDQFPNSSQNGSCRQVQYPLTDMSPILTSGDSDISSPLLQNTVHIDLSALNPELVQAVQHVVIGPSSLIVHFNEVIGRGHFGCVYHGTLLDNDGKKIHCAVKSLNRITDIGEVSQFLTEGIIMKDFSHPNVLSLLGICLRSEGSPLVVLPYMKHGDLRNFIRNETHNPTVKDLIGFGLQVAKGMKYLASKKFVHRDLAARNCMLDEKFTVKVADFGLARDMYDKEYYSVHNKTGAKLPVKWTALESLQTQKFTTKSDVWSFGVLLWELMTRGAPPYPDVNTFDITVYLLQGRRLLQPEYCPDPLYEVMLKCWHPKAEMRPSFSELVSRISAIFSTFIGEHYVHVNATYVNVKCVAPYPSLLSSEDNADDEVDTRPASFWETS
T5 sequence (P53778 whole entry): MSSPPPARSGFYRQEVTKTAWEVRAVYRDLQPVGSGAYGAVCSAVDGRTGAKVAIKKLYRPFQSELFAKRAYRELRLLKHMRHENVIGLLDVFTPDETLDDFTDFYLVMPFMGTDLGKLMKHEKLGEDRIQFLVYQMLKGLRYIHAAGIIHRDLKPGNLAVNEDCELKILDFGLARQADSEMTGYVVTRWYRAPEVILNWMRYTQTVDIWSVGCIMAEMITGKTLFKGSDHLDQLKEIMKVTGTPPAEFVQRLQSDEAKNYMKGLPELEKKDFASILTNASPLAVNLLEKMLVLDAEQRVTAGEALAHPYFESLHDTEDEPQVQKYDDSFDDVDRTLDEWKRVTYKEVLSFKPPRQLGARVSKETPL
Sequence of MARK1 (Q9P0L2 whole entry): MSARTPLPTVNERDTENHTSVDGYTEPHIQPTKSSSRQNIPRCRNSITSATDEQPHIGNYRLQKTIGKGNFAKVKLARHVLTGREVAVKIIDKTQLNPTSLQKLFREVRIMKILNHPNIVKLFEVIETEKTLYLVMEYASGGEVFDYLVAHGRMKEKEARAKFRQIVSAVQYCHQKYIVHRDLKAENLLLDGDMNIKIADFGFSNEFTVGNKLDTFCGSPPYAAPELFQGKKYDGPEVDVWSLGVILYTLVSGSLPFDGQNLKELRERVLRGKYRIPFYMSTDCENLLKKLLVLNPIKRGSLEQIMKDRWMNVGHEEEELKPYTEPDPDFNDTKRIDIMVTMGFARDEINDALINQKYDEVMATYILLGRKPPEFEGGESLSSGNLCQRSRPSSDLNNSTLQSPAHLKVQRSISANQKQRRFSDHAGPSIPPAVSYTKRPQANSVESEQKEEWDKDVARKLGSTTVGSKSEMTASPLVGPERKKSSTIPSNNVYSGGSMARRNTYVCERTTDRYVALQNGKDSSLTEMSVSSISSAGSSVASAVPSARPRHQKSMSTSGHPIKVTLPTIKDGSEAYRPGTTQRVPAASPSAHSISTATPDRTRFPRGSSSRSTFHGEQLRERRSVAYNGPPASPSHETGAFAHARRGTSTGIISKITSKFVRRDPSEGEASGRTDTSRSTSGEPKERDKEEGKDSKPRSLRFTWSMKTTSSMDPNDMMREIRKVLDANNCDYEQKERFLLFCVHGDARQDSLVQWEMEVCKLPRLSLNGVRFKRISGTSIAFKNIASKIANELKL
Sequence of PRKCH (P24723 whole entry): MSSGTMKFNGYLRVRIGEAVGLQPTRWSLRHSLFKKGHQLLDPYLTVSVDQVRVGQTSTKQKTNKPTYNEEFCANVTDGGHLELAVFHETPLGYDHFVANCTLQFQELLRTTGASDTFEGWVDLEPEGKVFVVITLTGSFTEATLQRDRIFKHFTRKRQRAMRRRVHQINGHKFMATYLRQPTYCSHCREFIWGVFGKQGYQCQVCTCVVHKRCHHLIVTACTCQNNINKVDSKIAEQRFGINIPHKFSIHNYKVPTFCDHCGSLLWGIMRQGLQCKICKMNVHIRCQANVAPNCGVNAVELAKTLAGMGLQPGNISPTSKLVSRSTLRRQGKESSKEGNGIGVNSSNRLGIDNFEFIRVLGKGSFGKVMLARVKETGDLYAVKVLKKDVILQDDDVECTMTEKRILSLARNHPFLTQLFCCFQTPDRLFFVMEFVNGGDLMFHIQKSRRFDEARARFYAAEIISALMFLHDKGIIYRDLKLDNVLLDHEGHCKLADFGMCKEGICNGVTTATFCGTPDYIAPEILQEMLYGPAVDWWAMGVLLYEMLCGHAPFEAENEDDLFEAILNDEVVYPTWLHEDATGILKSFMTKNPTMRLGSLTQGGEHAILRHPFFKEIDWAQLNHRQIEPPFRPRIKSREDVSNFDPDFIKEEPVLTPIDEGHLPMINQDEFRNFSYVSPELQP
T4 sequence (P0C264 whole entry): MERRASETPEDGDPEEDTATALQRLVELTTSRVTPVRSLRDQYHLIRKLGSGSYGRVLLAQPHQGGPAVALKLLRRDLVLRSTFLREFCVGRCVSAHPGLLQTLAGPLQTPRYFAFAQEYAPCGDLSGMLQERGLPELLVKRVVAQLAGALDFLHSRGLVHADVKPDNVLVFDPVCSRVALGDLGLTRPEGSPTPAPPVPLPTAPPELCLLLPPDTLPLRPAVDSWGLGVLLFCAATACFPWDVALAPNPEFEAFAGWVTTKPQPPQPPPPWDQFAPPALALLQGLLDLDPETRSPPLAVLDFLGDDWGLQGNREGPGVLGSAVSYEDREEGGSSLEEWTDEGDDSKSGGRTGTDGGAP

In the case of `Cc1ccc(NC(=O)c2cccc(C(F)(F)F)c2)cc1Nc1cc(-c2cccnc2)nc2[nH]ccc12` [HZX-02-059], the remaining binding at 1 µM (DDR2) is reported as 0%, the remaining binding at 1 µM (DDR1) is reported as 0.75% and the remaining binding at 1 µM (STK33) is reported as 94%. It also gave a remaining binding at 1 µM (DYRK1B) of 97%, a remaining binding at 1 µM (LTK) of 79% and a remaining binding at 1 µM (LCK) of 0.9%. The remaining binding at 1 µM (KIT(V559D,T670I)) was 80%, the remaining binding at 1 µM (CAMK2D) was 100% and the remaining binding at 1 µM (MET(M1250T)) was 100%. The remaining binding at 1 µM (AURKC) was 75%, the remaining binding at 1 µM (DAPK3) was 96% and the remaining binding at 1 µM (PRKCH) was 90%. The remaining binding at 1 µM (PRKD3) was 100%, the remaining binding at 1 µM (SGK) was 100% and the remaining binding at 1 µM (IRAK3) was 92%. The remaining binding at 1 µM (MAP4K3) was 97%, the remaining binding at 1 µM (FLT3(D835Y)) was 100% and the remaining binding at 1 µM [1] was 98%. The remaining binding at 1 µM (ABL1-phosphorylated) was 55%, the remaining binding at 1 µM (MARK1) was 94% and the remaining binding at 1 µM (SgK110) was 100%. For the same compound, the remaining binding at 1 µM (p38-gamma) was 92%, the remaining binding at 1 µM (BRAF) was 18% and the remaining binding at 1 µM (AXL) was 90%. For the same compound, the remaining binding at 1 µM (EPHA8) was 0.5%.
